Assay results: patent publication US9758529B2, “Fused dihydro-4H-pyrazolo[5,1-C][1,4]oxazinyl compounds and analogs for treating CNS disorders” (Sunovion Pharmaceuticals Inc., priority 2015, dated 2017)
Counter-ions that a name gives are not always drawn.

Tested on: mice
Experiment: Neuropharmacological Assay (SmartCube)
Type: in vivo
Conditions: i.p. 15 min before behavioral test; 3 doses, most efficacious dose(s) presented
Description: Neurosci. […] As reported in Roberds, because psychiatric diseases generally result from disorders of cell-cell communication or circuitry, intact systems are useful in detecting improvement in disease-relevant endpoints. These endpoints are typically behavioral in nature, often requiring human observation and interpretation. To facilitate testing of multiple compounds for behavioral effects relevant to psychiatric disease, PsychoGenics, Inc. (Tarrytown, N.Y., “PGI”) developed SmartCube™, an automated system in which behaviors of compound-treated mice are captured by digital video and analyzed with computer algorithms. […] PGI Analytical Systems uses data from SmartCube™ to compare the behavioral signature of a test compound to a database of behavioral signatures obtained using a large set of diverse reference compounds. (The composition of the database as well as validation of the method is further described in Roberds). In this way, the neuropharmacological effects of a test compound can be predicted by similarity to major classes of compounds, such as antipsychotics, anxiolytics and antidepressants.
The SmartCube™ system produces an activity signature indicating the probability that the activity of the test compound at the administered dose matches a given class of neuropharmacological agents. (See, e.g., Roberds, FIGS. 2 and 3). The test compound is simultaneously compared against multiple classes of agents; thus, a separate probability is generated for each behavioral effect measured (e.g., anxiolytic activity, analgesic activity, etc.). In Table 2 and 2B, these probabilities are reported for each behavioral effect measured as follows:
where LOQ is the limit of quantification.
Provided compounds were dissolved in a mixture of Pharmasolve™ (N-methyl-2-pyrrolidone), polyethylene glycol and propylene glycol, and were injected i.p. 15 min. before the behavioral test. For each compound, injections were administered at 3 different doses. For each behavioral effect measured, results for the most efficacious dose(s) are presented.

SMILES | AD: ADHD (probability of class match) | AG: analgesic (probability of class match) | AX: anxiolytic (probability of class match) | CE: cognitive enhancer (probability of class match) | DP: anti-depressant (probability of class match) | HA: hallucinogen (probability of class match) | MS: mood stabilizer (probability of class match) | PS: anti-psychotic (probability of class match) | SD: sedative hypnotic (probability of class match) | UN: uncharacterized CNS activity (probability of class match) | XG: anxiogenic (probability of class match)
c1ccc2c3n(nc2c1)CCOC3[C@@H]1CCCN1 (stereo partly drawn) [Compound 13, 1-((S)-pyrrolidin-2-yl)-3,4-dihydro-1H-[1,4]oxazino[4,3-b]indazole hydrochloride] | + (LOQ≦ + <5%) | +++ (25%≦ +++ <50%) | ++ (5%≦ ++ <25%) | ++ (5%≦ ++ <25%) | ++ (5%≦ ++ <25%) | + (LOQ≦ + <5%) | ++ (5%≦ ++ <25%) | + (LOQ≦ + <5%) | + (LOQ≦ + <5%) | + (LOQ≦ + <5%) | + (LOQ≦ + <5%)
CN1CCC[C@H]1C1OCCn2nc3ccccc3c21 (stereo partly drawn) [Compound 14, 1-((S)-1-methylpyrrolidin-2-yl)-3,4-dihydro-1H-[1,4]oxazino[4,3-b]indazole hydrochloride] | + (LOQ≦ + <5%) | + (LOQ≦ + <5%) | +++ (25%≦ +++ <50%) | ++ (5%≦ ++ <25%) | ++ (5%≦ ++ <25%) | + (LOQ≦ + <5%) | + (LOQ≦ + <5%) | ++ (5%≦ ++ <25%) | + (LOQ≦ + <5%) | + (LOQ≦ + <5%) | + (LOQ≦ + <5%)
NCC1OCCn2nc3ccccc3c21 (stereo not drawn) [Compound 15, (3,4-dihydro-1H-[1,4]oxazino[4,3-b]indazol-1-yl)methanamine] | ++++ (50%≦ ++++) | ++ (5%≦ ++ <25%) | + (LOQ≦ + <5%) | + (LOQ≦ + <5%) | ++ (5%≦ ++ <25%) | + (LOQ≦ + <5%) | + (LOQ≦ + <5%) | + (LOQ≦ + <5%) | + (LOQ≦ + <5%) | + (LOQ≦ + <5%) | + (LOQ≦ + <5%)
c1ccc2c3n(nc2c1)CCOC3CNC1CCC1 (stereo not drawn) [Compound 16, N-((3,4-dihydro-1H-[1,4]oxazino[4,3-b]indazol-1-yl)methyl) cyclobutanamine] | + (LOQ≦ + <5%) | + (LOQ≦ + <5%) | + (LOQ≦ + <5%) | + (LOQ≦ + <5%) | + (LOQ≦ + <5%) | + (LOQ≦ + <5%) | + (LOQ≦ + <5%) | + (LOQ≦ + <5%) | + (LOQ≦ + <5%) | + (LOQ≦ + <5%) | + (LOQ≦ + <5%)
CC(C)NCC1OCCn2nc3ccccc3c21 (stereo not drawn) [Compound 17, N-((3,4-dihydro-1H-[1,4]oxazino[4,3-b]indazol-1-yl)methyl)propan-2-amine] | + (LOQ≦ + <5%) | + (LOQ≦ + <5%) | ++ (5%≦ ++ <25%) | + (LOQ≦ + <5%) | ++ (5%≦ ++ <25%) | + (LOQ≦ + <5%) | + (LOQ≦ + <5%) | + (LOQ≦ + <5%) | + (LOQ≦ + <5%) | ++ (5%≦ ++ <25%) | + (LOQ≦ + <5%)
CCNCC1OCCn2nc3ccccc3c21.Cl (stereo not drawn) [Compound 18, N-((3,4-dihydro-1H-[1,4]oxazino[4,3-b]indazol-1-yl)methyl) ethanamine hydrogen chloride salt] | + (LOQ≦ + <5%) | ++ (5%≦ ++ <25%) | ++ (5%≦ ++ <25%) | ++ (5%≦ ++ <25%) | + (LOQ≦ + <5%) | + (LOQ≦ + <5%) | + (LOQ≦ + <5%) | ++ (5%≦ ++ <25%) | + (LOQ≦ + <5%) | + (LOQ≦ + <5%) | + (LOQ≦ + <5%)
c1ccc2c3n(nc2c1)CCOC3CN1CCCC1 (stereo not drawn) [Compound 19, 1-(pyrrolidin-1-ylmethyl)-3,4-dihydro-1H-[1,4]oxazino[4,3-b]indazole hydrogen chloride salt] | + (LOQ≦ + <5%) | ++ (5%≦ ++ <25%) | ++ (5%≦ ++ <25%) | ++ (5%≦ ++ <25%) | +++ (25%≦ +++ <50%) | + (LOQ≦ + <5%) | + (LOQ≦ + <5%) | + (LOQ≦ + <5%) | + (LOQ≦ + <5%) | + (LOQ≦ + <5%) | + (LOQ≦ + <5%)
c1ccc2c3n(nc2c1)CCOC3CN1CCOCC1 (stereo not drawn) [Compound 20, 1-(morpholinomethyl)-3,4-dihydro-1H-[1,4]oxazino[4,3-b]indazole hydrogen chloride salt] | + (LOQ≦ + <5%) | ++ (5%≦ ++ <25%) | +++ (25%≦ +++ <50%) | ++ (5%≦ ++ <25%) | ++ (5%≦ ++ <25%) | + (LOQ≦ + <5%) | + (LOQ≦ + <5%) | ++ (5%≦ ++ <25%) | + (LOQ≦ + <5%) | + (LOQ≦ + <5%) | + (LOQ≦ + <5%)
c1ccc2c3n(nc2c1)CCOC3CNC1CC1 (stereo not drawn) [Compound 21, N-((3,4-dihydro-1H-[1,4]oxazino[4,3-b]indazol-1-yl)methyl)cyclopropan amine hydrogen chloride salt] | + (LOQ≦ + <5%) | ++ (5%≦ ++ <25%) | ++ (5%≦ ++ <25%) | + (LOQ≦ + <5%) | ++ (5%≦ ++ <25%) | + (LOQ≦ + <5%) | + (LOQ≦ + <5%) | ++ (5%≦ ++ <25%) | + (LOQ≦ + <5%) | + (LOQ≦ + <5%) | + (LOQ≦ + <5%)
